Measurements published in patent publication US20220098201A1, “THE MONOHYDRATE OF ROGARATINIB HYDROCHLORIDE AND SOLID STATES THEREOF” (Bayer Aktiengesellschaft, priority 2019, published 2022).

Columns and labels:
[1] = Slurry experiments of monohydrate (A) in various solvents; format: physicochemical
Source text: The residues were filtered off and dried at room temperature and ambient humidity. Reproducible preparation was not possible for all solid state forms.

[2] = Storage of solid forms in closed vessels at 25° C. and 50° C.; format: physicochemical; conditions: for Modification after storage in closed vessels: 12 months, humidity not set
[3] = Moisture sorption: storage at various humidities, thermogravimetric analysis; format: physicochemical; conditions: for Mass loss after storage / Modification after storage: 25° C., 12 months
Method: TGA thermograms were recorded using thermobalances (model TGA7 and Pyris 1) from Perkin-Elmer.
The measurements were performed with a heating rate of 10 Kmin^−1 using open platinum pans. Flow gas was nitrogen. There was no sample preparation.
Their moisture content was then determined by thermogravimetric analysis.

[4] = Crystalline form (XRPD) in coated tablet during storage; format: physicochemical; conditions: see Table 5
Method: X-Ray diffraction patterns were recorded at room temperature using XRD-diffractometers X'Pert PRO (PANalytical) and STOE STADI-P (radiation Cu K alpha 1, wavelength 1.5406 Å). There was no sample preparation. All X-Ray reflections are quoted as °2θ (theta) values (peak maxima) with a resolution of ±0.2°.
Tablets with compound III were manufactured according to the method described above and an initial XRPD was recorded.

[5] = Stability in brown glass bottle; format: physicochemical; conditions: for Assay calc. on dried substance / Ethanol / Material and colour / Sum of all organic impurities / Water: brown glass bottle
[6] = Solubility in water compared with free base; format: physicochemical; conditions: compared with the free base
[7] = Bioavailability; conditions: stated as result of better solubility than the free base
[8] = Hygroscopicity and chemical stability of the di-hydrochloride on standing in air; format: physicochemical

COCc1c(-c2cc3cc(C)cc(OC)c3s2)c2c(N)ncnn2c1CN1CCNC(=O)C1.Cl.O [Compound (III), 4-{[4-amino-6-(methoxymethyl)-5-(7-methoxy-5-methyl-1-benzothiophen-2-yl)pyrrolo[2,1-f][1,2,4]triazin-7-yl]methyl}piperazin-2-one hydrochloride hydrate]
Modification residue ([1]; slurry in 1,4-Dioxane, 25 ° C., stirring time 1 week): Monohydrate (A)
Modification residue ([1]; slurry in Acetonitrile/water (1:1), 25 ° C., stirring time 1 week): Monohydrate (A)
Modification residue ([1]; slurry in Ethanol, 25 ° C., stirring time 4 weeks): Monohydrate (A)
Modification residue ([1]; slurry in Ethanol/water (1:1), 25 ° C., stirring time 1 week): Monohydrate (A)
Modification residue ([1]; slurry in Isopropanol, 0 ° C., stirring time 1 week): Monohydrate (A)
Modification residue ([1]; slurry in Isopropanol, 25 ° C., stirring time 4 weeks): Monohydrate (A)
Modification residue ([1]; slurry in Methanol, 0 ° C., stirring time 2 weeks): ¾-Hydrate (D)
Modification residue ([1]; slurry in Methanol, 0 ° C., stirring time 5 weeks): Dihydrate (B)
Modification residue ([1]; slurry in Methanol, 25 ° C., stirring time 1 week): Monohydrate (A)
Modification residue ([1]; slurry in Tetrahydrofurane/water (1:1), 25 ° C., stirring time 4 weeks): Monohydrate (A)
Modification residue ([1]; slurry in Toluene, 25 ° C., stirring time 4 weeks): Monohydrate (A)
Modification after storage in closed vessels ([2]; 25° C.): Monohydrate
Modification after storage in closed vessels ([2]; 50° C.): Monohydrate
physical stability ([2]; Storage at 25 and 50° C. for 12 month): no changes in stability
Mass loss after storage ([3]; 15% r. h.): 3.7%
Modification after storage ([3]; 15% r. h.): Monohydrate
Mass loss after storage ([3]; 85% r. h.): 3.7%
Modification after storage ([3]; 85% r. h.): Monohydrate
Mass loss after storage ([3]; 97% r. h.): 3.7%
Modification after storage ([3]; 97% r. h.): Monohydrate
Hygroscopicity ([3]; conclusion from moisture sorption tests, 12 month at 15%, 85% and 97% r.h.): not hygroscopic
uptake of water ([3]; stored for 12 month at 15% r.h., 85% r.h and 97% r.h.): no uptake of water
Stability of the form in the tablet matrix [4]: stable in the tablet matrix and does not change during storage
Stability during storage over a long period of time [5]: very stable during storage
Assay calc. on dried substance ([5]; 25° C./60% r.h., 3 months): 99.8%
Ethanol ([5]; 25° C./60% r.h., 3 months): 0.460%
Material and colour ([5]; 25° C./60% r.h., 3 months): slightly grey-tinged solid
Sum of all organic impurities ([5]; 25° C./60% r.h., 3 months): 1.08%
Water ([5]; 25° C./60% r.h., 3 months): 3.9%
Assay calc. on dried substance ([5]; 25° C./60% r.h., 6 months): 100.0%
Ethanol ([5]; 25° C./60% r.h., 6 months): 0.467%
Material and colour ([5]; 25° C./60% r.h., 6 months): slightly grey-tinged solid
Sum of all organic impurities ([5]; 25° C./60% r.h., 6 months): 1.05%
Water ([5]; 25° C./60% r.h., 6 months): 3.5%
Assay calc. on dried substance ([5]; 25° C./60% r.h., 9 months): 100.0%
Ethanol ([5]; 25° C./60% r.h., 9 months): 0.444%
Material and colour ([5]; 25° C./60% r.h., 9 months): slightly grey-tinged solid
Sum of all organic impurities ([5]; 25° C./60% r.h., 9 months): 1.14%
Water ([5]; 25° C./60% r.h., 9 months): 3.5%
Assay calc. on dried substance ([5]; 25° C./60% r.h., 12 months): 98.1%
Ethanol ([5]; 25° C./60% r.h., 12 months): 0.441%
Material and colour ([5]; 25° C./60% r.h., 12 months): slightly grey-tinged solid
Sum of all organic impurities ([5]; 25° C./60% r.h., 12 months): 1.22%
Water ([5]; 25° C./60% r.h., 12 months): 3.6%
Assay calc. on dried substance ([5]; 25° C./60% r.h., 18 months): 100.4%
Ethanol ([5]; 25° C./60% r.h., 18 months): 0.434%
Material and colour ([5]; 25° C./60% r.h., 18 months): slightly grey-tinged solid
Sum of all organic impurities ([5]; 25° C./60% r.h., 18 months): 1.17%
Water ([5]; 25° C./60% r.h., 18 months): 3.6%
Assay calc. on dried substance ([5]; 25° C./60% r.h., 24 months): 98.8%
Ethanol ([5]; 25° C./60% r.h., 24 months): 0.415%
Material and colour ([5]; 25° C./60% r.h., 24 months): slightly grey-tinged solid
Sum of all organic impurities ([5]; 25° C./60% r.h., 24 months): 1.14%
Water ([5]; 25° C./60% r.h., 24 months): 3.5%
Assay calc. on dried substance ([5]; 40° C./75% r.h., 3 months): 98.4%
Ethanol ([5]; 40° C./75% r.h., 3 months): 0.406%
Material and colour ([5]; 40° C./75% r.h., 3 months): slightly grey-tinged solid
Sum of all organic impurities ([5]; 40° C./75% r.h., 3 months): 1.17%
Water ([5]; 40° C./75% r.h., 3 months): 3.6%
Assay calc. on dried substance ([5]; 40° C./75% r.h., 6 months): 99.7%
Ethanol ([5]; 40° C./75% r.h., 6 months): 0.435%
Material and colour ([5]; 40° C./75% r.h., 6 months): slightly grey-tinged solid
Sum of all organic impurities ([5]; 40° C./75% r.h., 6 months): 1.00%
Water ([5]; 40° C./75% r.h., 6 months): 3.4%
Assay calc. on dried substance ([5]; initial): 100.3%
Ethanol ([5]; initial): 0.533%
Material and colour ([5]; initial): slightly grey-tinged solid
Sum of all organic impurities ([5]; initial): 1.03%
Water ([5]; initial): 3.5%
chemical stability ([5]; during storage for several years): chemically stable
solubility in water [6]: significantly better solubility in water
bioavailability [7]: enhanced bioavailability

COCc1c(-c2cc3cc(C)cc(OC)c3s2)c2c(N)ncnn2c1CN1CCNC(=O)C1.Cl.O.O [Dihydrate (B)]
Change of solid form during storage in a closed vessel ([2]; closed vessel, within two weeks): transformed into the monohydrate
Change of solid form of isolated residue ([2]; stored at room temperature, in the course of two weeks): transformed into the Monohydrate

COCc1c(-c2cc3cc(C)cc(OC)c3s2)c2c(N)ncnn2c1CN1CCNC(=O)C1.Cl.O.O.O [Trihydrate]
Modification after storage in closed vessels ([2]; 25° C.): Trihydrate
Mass loss after storage ([3]; 85% r. h.): 3.3%
Modification after storage ([3]; 85% r. h.): Monohydrate*
Mass loss after storage ([3]; 97% r. h.): 6.0%
Modification after storage ([3]; 97% r. h.): Monohydrate*
Change of solid form during storage at high humidity ([3]; storage at high humidity): changed into the monohydrate

COCc1c(-c2cc3cc(C)cc(OC)c3s2)c2c(N)ncnn2c1CN1CCNC(=O)C1.Cl.Cl [di-hydrochloride, di-hydrochloride of 4-{[4-Amino-6-(methoxymethyl)-5-(7-methoxy-5-methyl-1-benzothiophen-2-yl)pyrrolo[2,1-f][1,2,4]triazin-7-yl]methyl}piperazin-2-one]
Hygroscopicity [8]: very hydroscopic
chemical stability ([8]; on standing in the air): loses HCl on standing in the air
